ChEMBL document CHEMBL1151440, “Safety and pharmacokinetics of GSK364735, a human immunodeficiency virus type 1 integrase inhibitor, following single and repeated administration in healthy adult subjects” (Antimicrob Agents Chemother, 2007)

Legend:
[1] = Terminal elimination half life in human at 400 mg administered with fat meal daily for 8 days measured on day 8; type: ADME, organism-based; conditions: in vivo, read-out: beta t1/2 (converted)
[2] = Cmax in fasted human at 100 mg administered as single dose; type: ADME, organism-based; design: dose 100 mg; conditions: in vivo
[3] = Tmax in fasted human at 100 mg administered as single dose; type: ADME, organism-based; conditions: in vivo
[4] = Tmax in fasted human at 200 mg administered as single dose; type: ADME, organism-based; conditions: in vivo
[5] = Terminal elimination half life in human at 100 mg administered with fat meal every 12 hrs for 8 days measured on day 8; type: ADME, organism-based; conditions: in vivo, read-out: beta t1/2 (converted)
[6] = tested on: Canis familiaris; assay: Clearance in iv dosed dog assessed as liver blood flow; type: ADME, organism-based, Canis lupus familiaris; conditions: in vivo
[7] = tested on: Human immunodeficiency virus 1; assay: Antiviral activity against HIV1 BaL in peripheral blood lymphocytes; type: functional, organism-based; conditions: Human immunodeficiency virus 1, BaL
[8] = Plasma concentration in human at 100 mg administered with fat meal every 12 hrs for 8 days measured on day 1 after 12 hrs of first dose; type: ADME, organism-based
[9] = species on record: Homo sapiens; assay: Protein binding in human plasma by equilibrium dialysis assay; conditions: read-out: PB
[10] = Plasma concentration in human at 50 mg administered with fat meal every 12 hrs for 8 days measured on day 1 after 12 hrs of first dose; type: ADME, organism-based
[11] = Terminal elimination half life in human at 400 mg administered with fat meal daily for 8 days measured on day 1; type: ADME, organism-based; conditions: in vivo, read-out: beta t1/2 (converted)
[12] = Cmax in human at 200 mg administered with fat meal every 8 hrs for 8 days measured on day 8; type: ADME, organism-based; design: dose 200 mg; conditions: in vivo
[13] = Cmax in human at 400 mg administered with fat meal daily for 8 days measured on day 8; type: ADME, organism-based; design: dose 400 mg; conditions: in vivo
[14] = Tmax in human at 200 mg administered with fat meal every 8 hrs for 8 days measured on day 8; type: ADME, organism-based; conditions: in vivo
[15] = tested on: Homo sapiens; assay: Toxicity in human assessed as changes in continuous telemetry monitoring at 50 to 200 mg administered as single dose; type: organism-based; conditions: in vivo
[16] = AUC (0 to infinity) in fasted human at 200 mg administered as single dose; type: ADME, organism-based; design: dose 200 mg, time infinity; conditions: plasma
[17] = Terminal elimination half life in human at 50 mg administered with fat meal every 12 hrs for 8 days measured on day 8; type: ADME, organism-based; conditions: in vivo, read-out: beta t1/2 (converted)
[18] = AUC (0 to infinity) in fasted human at 50 mg administered as single dose; type: ADME, organism-based; design: dose 50 mg, time infinity; conditions: plasma
[19] = Terminal elimination half life in human at 50 mg administered with fat meal every 12 hrs for 8 days measured on day 1; type: ADME, organism-based; conditions: in vivo, read-out: beta t1/2 (converted)
[20] = Terminal elimination half life in human at 200 mg administered with fat meal every 8 hrs for 8 days measured on day 1; type: ADME, organism-based; conditions: in vivo, read-out: beta t1/2 (converted)
[21] = tested on: Homo sapiens; assay: Toxicity in human assessed as dizziness at 100 mg administered every 12 hrs for 8 days; type: organism-based; conditions: in vivo
[22] = Plasma concentration in human at 200 mg administered with fat meal every 12 hrs for 8 days measured on day 1 after 12 hrs of first dose; type: ADME, organism-based
[23] = AUC (0 to 12 hrs) in human at 200 mg administered with fat meal every 12 hrs for 8 days measured on day 8; type: ADME, organism-based; design: dose 200 mg, time < 12 hr; conditions: plasma
[24] = Cmax in fasted human at 50 mg administered as single dose; type: ADME, organism-based; design: dose 50 mg; conditions: in vivo
[25] = Terminal elimination half life in iv dosed dog; type: ADME, organism-based, Canis lupus familiaris; conditions: in vivo, read-out: beta t1/2 (converted)
[26] = tested on: Homo sapiens; assay: Toxicity in human assessed as increase in LDL cholesterol level at 50 to 400 mg after sequential repeated dose administration for 8 days relative to basal level; type: organism-based; conditions: in vivo, 192 h
[27] = Tmax in fasted human at 200 mg administered with fat meal as single dose; type: ADME, organism-based; conditions: in vivo
[28] = Tmax in human at 200 mg administered with fat meal every 8 hrs for 8 days measured on day 1; type: ADME, organism-based; conditions: in vivo
[29] = Apparent oral clearance in human at 400 mg administered with fat meal as single dose; type: ADME, organism-based; conditions: in vivo
[30] = Apparent oral clearance in human at 200 mg administered with fat meal every 12 hrs for 8 days measured on day 1; type: ADME, organism-based; conditions: in vivo
[31] = species on record: Homo sapiens; assay: Toxicity in human assessed as adverse effect at 400 mg daily for 8 days; type: organism-based; conditions: in vivo, 192 h
[32] = Apparent oral clearance in human at 50 mg administered with fat meal every 12 hrs for 8 days measured on day 1; type: ADME, organism-based; conditions: in vivo
[33] = Tmax in human at 200 mg administered with fat meal every 12 hrs for 8 days measured on day 8; type: ADME, organism-based; conditions: in vivo
[34] = Cmax in human at 100 mg administered with fat meal every 12 hrs for 8 days measured on day 1; type: ADME, organism-based; design: dose 100 mg; conditions: in vivo
[35] = tested on: Homo sapiens; assay: Toxicity in human assessed as changes in vital signs at 50 to 200 mg administered as single dose; type: organism-based; conditions: in vivo
[36] = tested on: Homo sapiens; assay: Toxicity in human assessed as changes in 12-lead ECG at 50 to 200 mg administered as single dose; type: organism-based; conditions: in vivo
[37] = Apparent oral clearance in human at 100 mg administered with fat meal every 12 hrs for 8 days measured on day 1; type: ADME, organism-based; conditions: in vivo
[38] = Apparent oral clearance in human at 200 mg administered with fat meal every 12 hrs for 8 days measured on day 8; type: ADME, organism-based; conditions: in vivo
[39] = Apparent oral clearance in fasted human at 50 mg administered as single dose; type: ADME, organism-based; conditions: in vivo
[40] = Tmax in human at 200 mg administered with fat meal every 12 hrs for 8 days measured on day 1; type: ADME, organism-based; conditions: in vivo
[41] = Tmax in fasted human at 400 mg administered with fat meal as single dose; type: ADME, organism-based; conditions: in vivo
[42] = AUC (0 to infinity) in human at 200 mg administered with fat meal every 12 hrs for 8 days measured on day 1; type: ADME, organism-based; design: dose 200 mg, time infinity; conditions: plasma
[43] = AUC (0 to 24 hrs) in human at 400 mg administered with fat meal daily for 8 days measured on day 8; type: ADME, organism-based; design: dose 400 mg, time < 24 hr; conditions: plasma
[44] = AUC (0 to 12 hrs) in human at 100 mg administered with fat meal every 12 hrs for 8 days measured on day 8; type: ADME, organism-based; design: time < 12 hr, dose 100 mg; conditions: plasma
[45] = tested on: Homo sapiens; assay: Toxicity in human assessed as dizziness at 200 mg administered every 8 hrs for 8 days; type: organism-based; conditions: in vivo
[46] = tested on: Homo sapiens; assay: Toxicity in human assessed as adverse effect at 50 to 200 mg administered as single dose; type: organism-based; conditions: in vivo
[47] = Tmax in human at 100 mg administered with fat meal every 12 hrs for 8 days measured on day 8; type: ADME, organism-based; conditions: in vivo
[48] = Terminal elimination half life in iv dosed monkey; type: ADME, organism-based, Macaca mulatta; conditions: rhesus monkey, in vivo, read-out: beta t1/2 (converted)
[49] = Cmax in human at 200 mg administered with fat meal every 8 hrs for 8 days measured on day 1; type: ADME, organism-based; design: dose 200 mg; conditions: in vivo
[50] = tested on: Homo sapiens; assay: Toxicity in human assessed as adverse effect at 200 mg administered every 12 hrs for 8 days; type: organism-based; conditions: in vivo
[51] = tested on: Homo sapiens; assay: Toxicity in human assessed as diarrhea at 50 to 200 mg administered as single dose; type: organism-based; conditions: in vivo
[52] = AUC (0 to infinity) in human at 100 mg administered with fat meal every 12 hrs for 8 days measured on day 1; type: ADME, organism-based; design: dose 100 mg, time infinity; conditions: plasma
[53] = Oral bioavailability in dog; type: ADME, organism-based, Canis lupus familiaris; conditions: in vivo
[54] = tested on: Homo sapiens; assay: Toxicity in human assessed as headache at 100 mg administered every 12 hrs for 8 days; type: organism-based; conditions: in vivo
[55] = AUC (0 to infinity) in human at 400 mg administered with fat meal as single dose; type: ADME, organism-based; design: dose 400 mg, time infinity; conditions: plasma
[56] = tested on: Homo sapiens; assay: Toxicity in human assessed as changes in hematology at 50 to 200 mg administered as single dose; type: organism-based; conditions: in vivo
[57] = Terminal elimination half life in fasted human at 100 mg administered as single dose; type: ADME, organism-based; conditions: in vivo, read-out: beta t1/2 (converted)

## Cn1c(=O)c(C(=O)NCCO)c(O)c2ncc(Cc3ccc(F)cc3)cc21 [GSK-364735]
[1]
  half-life: 4.4 h
[2]
  Cmax: 1000 ng/mL
[3]
  Tmax: 2.5 h
[4]
  Tmax: 2.5 h
[5]
  half-life: 4.2 h
[6]
  QH: 27.8%
[7]
  IC50: 1.2 nM
[8]
  concentration at 12 h: 160 ng/mL
[9]
  fraction unbound: 0.01
[10]
  concentration at 12 h: 93 ng/mL
[11]
  half-life: 4.1 h
[12]
  Cmax: 970 ng/mL
[13]
  Cmax: 2100 ng/mL
[14]
  Tmax: 4 h
[15]
  Activity: Non-toxic
[16]
  AUC(0-inf): 5500 ng·h/mL
[17]
  half-life: 3.7 h
[18]
  AUC(0-inf): 3200 ng·h/mL
[19]
  half-life: 2.6 h
[20]
  half-life: 3.7 h
[21]
  Activity: 13%
[22]
  concentration at 12 h: 230 ng/mL
[23]
  AUC at 12 h: 9600 ng·h/mL
[24]
  Cmax: 760 ng/mL
[25]
  half-life: 1.5 h
[26]
  Activity: 0.5 mg/dL
[27]
  Tmax: 4 h
[28]
  Tmax: 3.75 h
[29]
  CL/F: 783 mL/min
[30]
  CL/F: 367 mL/min
[31]
  Activity: Non-toxic
[32]
  CL/F: 217 mL/min
[33]
  Tmax: 3 h
[34]
  Cmax: 2500 ng/mL
[35]
  Activity: Non-toxic
[36]
  Activity: Non-toxic
[37]
  CL/F: 147 mL/min
[38]
  CL/F: 350 mL/min
[39]
  CL/F: 267 mL/min
[40]
  Tmax: 4 h
[41]
  Tmax: 7 h
[42]
  AUC(0-inf): 9200 ng·h/mL
[43]
  AUC at 24 h: 12000 ng·h/mL
[44]
  AUC at 12 h: 12000 ng·h/mL
[45]
  Activity: 13%
[46]
  Activity: 4%
[47]
  Tmax: 3.75 h
[48]
  half-life: 1.5 h
[49]
  Cmax: 1100 ng/mL
[50]
  Activity: 25%
[51]
  Activity: 4%
[52]
  AUC(0-inf): 11000 ng·h/mL
[53]
  bioavailability: 6%
[54]
  Activity: 13%
[55]
  AUC(0-inf): 8500 ng·h/mL
[56]
  Activity: Non-toxic
[57]
  half-life: 2.9 h
